Patent US20210161997A1, “TREATING DISEASES VIA TARGETED MODULATION OF GENE SIGNALING NETWORKS” (Camp4 Therapeutics Corporation, priority 2018, published 2021)

How the values were obtained:
Type in all cases: cell-based
[1] = system: JAG1; assay: RNA-seq of JAG1 expression in compound-treated primary human hepatocytes; conditions: for JAG1 Fold Change (Log2): primary human hepatocytes; for Significant modulation of JAG1 (in words): summary of Table 6
Outline: (§1)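 Cryopreserved primary human hepatocytes from three donors, switched to serum-free medium 2 h before compound addition, were harvested about 18 h after treatment. Poly(A) mRNA was sequenced and aligned to GENCODE release 24, with DESeq2 negative binomial differential expression. Fold change is the treated level over the unperturbed level.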

[2] = system: NOTCH2; assay: RNA-seq of NOTCH2 expression in compound-treated primary human hepatocytes; conditions: primary human hepatocytes
Outline: as §1

[3] = system: SLC37A4; assay: RNA-seq of SLC37A4 expression in compound-treated primary human hepatocytes
Description: Human hepatocytes were obtained from two donors from Massachusetts General Hospital, namely MGH54 and MGH63, and one donor from Lonza, namely HUM4111B. Cryopreserved hepatocytes were cultured in plating media for 16 hours, transferred to maintenance media for 4 hours. Cultured on serum-free media for 2 hours, then a compound was added. The hepatocytes were maintained on the serum-free media for 16 hours prior to gene expression analysis. Primary human hepatocytes were stored in the vapor phase of a liquid nitrogen freezer (about −130° C.).
Human hepatocytes cultured as described above were plated in 24-well format, adding 375,000 cells per well in a volume of 500 ul plating medium. Four hours before treatment, cells were washed with PBS and the medium was changed to either: fresh maintenance medium (complete) or modified maintenance medium.
Compound stocks were prepared at 1000× final concentration and added in a 2-step dilution to the medium to reduce risk of a compound precipitating out of solution when added to the cells, and to ensure reasonable pipetting volumes. One at a time, each compound was first diluted 10-fold in warm (about 37° C.) modified maintenance medium (initial dilution=ID), mixed by vortexing, and the ID was diluted 100-fold into the cell culture (e.g. 5.1 ul into 1 well of a 24-well plate containing 0.5 mL medium). The plate was mixed by carefully swirling and after all wells were treated and returned to the incubator overnight. If desired, separate plates/wells were treated with vehicle-only controls and/or positive controls. If using multi-well plates, controls were included on each plate. After about 18 hours, cells were harvested for further analysis, e.g., ChIP-seq, RNA-seq, ATAC-seq, etc.
This protocol is a modified version of the following protocols: MagMAX mirVana Total RNA Isolation Kit User Guide (Applied Biosystems #MAN0011131 Rev B.0), NEBNext Poly(A) mRNA Magnetic Isolation Module (E7490), and NEBNext Ultra Directional RNA Library Prep Kit for Illumina (E7420) (New England Biosystems #E74901).
The MagMAX mirVana kit instructions (the section titled “Isolate RNA from cells” on pages 14-17) were used for isolation of total RNA from cells in culture. Two hundred μl of Lysis Binding Mix was used per well of the multiwell plate containing adherent cells (usually a 24-well plate).
For mRNA isolation and library prep, the NEBNext Poly(A) mRNA Magnetic Isolation Module and Directional Prep kit was used. RNA isolated from cells above was quantified, and prepared in […] of each sample in 50 μl of nuclease-free water. This protocol may be run in microfuge tubes or in a 96-well plate.
All pass filter reads from each sample were mapped against the human genome (assembly GRCh38/GCA_000001405.15 “no alt” analysis set merged with hs38d1/GCA_000786075.2) using two pass mapping via STAR version 2.5.3a (alignment parameters alignIntronMin=20; alignIntronMax=1000000; outFilterMismatchNmax=999; outFilterMismatchNoverLmax=0.05; outFilterType=BySJout; outFilterMultimapNmax=20; alignSJoverhangMin=8; alignSJDBoverhangMin=1; alignMatesGapMax=1000000) (Dobin et al., Bioinformatics (2012) 29(1):15-21). Genomic alignments were converted to transcriptome alignments based on reference transcript annotations from the Human GENCODE Gene Set release 24 (Harrow et al., Genome Res. (2012) 22(9): 1760-1774). Using unique and multimapped transcriptomic alignments, gene-level abundance estimates were computed using RSEM version 1.3.0 (Li and Dewey, BMC Bioinformatics (2011) 12:323) in a strand-aware manner, and including confidence interval sampling calculations, to arrive at posterior mean estimates (PME) of abundances (counts and normalized FPKM—fragments per kilobase of exon per million mapped fragments) from the underlying Bayesian model. Standard QC were applied (read integrity, mapping statistics, library complexity, fragment bias) to remove unsatisfactory samples.

SMILES | JAG1 Fold Change (Log2) [1] | Significant modulation of JAG1 (in words) [1] | NOTCH2 Fold Change (Log2) [2] | SLC37A4 Fold Change (Log2) [3]
S=C(NCc1ccc2c(c1)OCO2)N1CCN(c2ncnc3c2oc2ccccc23)CC1 [Amuvatinib] | 0.74 Log2 | significantly modulate only JAG1 | −0.79 Log2 | 0.97 Log2
O=C1CCC(N2C(=O)c3ccccc3C2=O)C(=O)N1 (centres unmarked) [Thalidomide] | 1.30 Log2 | significantly modulate only JAG1 | −0.68 Log2 | 0.64 Log2
